Reference: patent US5011992A, “Pharmacologically active substituted benzamides” (Bristol-Myers Squibb Company, priority 1989, dated 1991)
Counter-ions that a name gives are not always drawn.

Molecular target: T1, dopaminergic (D2) receptors (Rattus norvegicus, UniProt P61169)
T1 construct: Homogenates (Brinkmann Polytron) of the corpus striatum in cold HEPES.KOH buffer; from tissue; host or cells: rat corpus striatum (washed membrane homogenate; rats from Charles River)
Test: 3H-Spiperone Displacement (striatal rat brain homogenates)
Format: binding
Details: rat striatal homogenate, approx. 100 pM 3H-spiperone, 37° C., 15 min
Method: (A) ^3 H-Spiperone Displacement
Rats (150±10 g; Charles River) were decapitated, the corpus striatum dissected out and frozen on dry ice. The tissues were pooled and stored at -80° C. until used. Homogenates (Brinkmann Polytron) of the corpus striatum in cold HEPES.KOH buffer (final pH=7.4) were centrifuged at 39,000× G. The supernatant was discarded and the pellets were re-suspended in HEPES.KOH buffer and re-centrifuged as above.
Tests to determine the Inhibitory Concentration50 (IC50) of the compounds of Formula I and reference compounds versus ^3 H-spiperone were conducted as follows. Tubes containing either 100 μL of buffer mixture (for total binding), 100 μL of buffer mixture plus 100 μL of 10^-4 M D(+)-butaclamol (for blanks, i.e. non-specific binding), or 100 μL of buffer mixture containing 10^-7, 10^-6 or 10^-5 M test compound were prepared. To each were added 100 μL of a solution of ^3 H-spiperone (New England Nuclear) in buffer mixture (2000 c.p.m. in the incubation mixture) and 800 μL of the striatal tissue suspension. The tubes were then diluted to 1 mL with buffer mixture, giving a final concentration of 10^-8, 10^-7 or 10^-6 M test compound and approximately 100 pM ^3 H-spiperone. The samples were incubated at 37° C. for 15 minutes, filtered in vacuo on glass fiber filters and counted by liquid scintillation spectrometry. […] All samples were run in duplicate.

T1 sequence (P61169 whole entry): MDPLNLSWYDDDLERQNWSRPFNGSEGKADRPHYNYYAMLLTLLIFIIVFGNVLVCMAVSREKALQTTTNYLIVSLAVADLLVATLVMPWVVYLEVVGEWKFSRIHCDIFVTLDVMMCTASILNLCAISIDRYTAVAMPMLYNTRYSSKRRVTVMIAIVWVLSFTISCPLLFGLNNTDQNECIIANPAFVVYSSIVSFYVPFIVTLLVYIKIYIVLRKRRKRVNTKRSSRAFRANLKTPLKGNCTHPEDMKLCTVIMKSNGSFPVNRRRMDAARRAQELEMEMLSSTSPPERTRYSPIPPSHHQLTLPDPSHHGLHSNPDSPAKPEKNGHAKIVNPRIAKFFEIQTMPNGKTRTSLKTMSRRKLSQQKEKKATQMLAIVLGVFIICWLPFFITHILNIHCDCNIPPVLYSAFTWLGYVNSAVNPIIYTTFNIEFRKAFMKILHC

| IC50 [nM] | SMILES |
| --- | --- |
| > 1000 | CCN(CC)CCNC(=O)c1cc(Cl)c(N)cc1OC(C)C(C)O (mixture of isomers) [Example 41, 4-Amino-5-chloro-N-2-(diethylamino)ethyl]-2-[(2-hydroxy)but-3-yl]oxybenzamide (mixture of threo and erythro isomers)] |
| > 1000 | CCN(CC)CCNC(=O)c1cc(Cl)c(N)cc1OCCOC [Example 1, 4-Amino-5-chloro-N-[2-(diethylamino)ethyl]-2-(2-methoxyethoxy)-benzamide] |
| > 1000 | CCN(CC)CCNC(=O)c1cc(Cl)c(N)cc1OCCO [Example 2, 4-Amino-5-chloro-N-[2-(diethylamino)ethyl]-2-(2-hydroxyethoxy)benzamide] |
| > 1000 | CCN(CC)CCNC(=O)c1cc(Cl)c(N)cc1OCC(OC)OC [Example 3] |
| > 1000 | CCN(CC)CCNC(=O)c1cc(Cl)c(N)cc1OCOCCOC [Example 4] |
| > 1000 | CCN(CC)CCNC(=O)c1cc(Cl)c(N)cc1OCC(C)=O [Example 5, 4-Amino-5-chloro-N-[2-(diethylamino)ethyl]-2-(2-propanon-1-yl)-oxybenzamide] |
| > 1000 | CCN(CC)CCNC(=O)c1cc(Cl)c(N)cc1OCC(=O)c1ccccc1 [Example 6, 4-Amino-2-(2-phenyl-2-oxoethoxy)-5-chloro-N-[2-(diethylamino)ethyl]benzamid] |
| > 1000 | CCN(CC)CCNC(=O)c1cc(Cl)c(N)cc1OC(C)C(C)=O (stereo not drawn) [Example 7, 4-Amino-2-(butan-2-on-3-yl)oxy-5-chloro-N-[2-(diethylamino)-ethyl]benzamide] |
| > 1000 | CCN(CC)CCNC(=O)c1cc(Cl)c(N)cc1OC1CCCCC1=O (stereo not drawn) [Example 9, 4-Amino-5-chloro-2-(cyclohexanon-2-yl)oxy-N-[2-(diethylamino)ethyl]benzamide] |
| > 1000 | CCN(CC)CCNC(=O)c1cc(Cl)c(N)cc1OCC(C)=NO [Example 10, 4-Amino-5-chloro-N-[2-(diethylamino)ethyl]-2-[(2-hydroxyimino)propan-1-yl]oxybenzamide] |
| > 1000 | CCN(CC)CCNC(=O)c1cc(Cl)c(N)cc1OCC(C)O (stereo not drawn) [Example 12, 4-Amino-5-chloro-N-[2-(diethylamino)ethyl]-2-(2-hydroxypropan-1-yl)oxybenzamide] |
| > 1000 | CCN(CC)CCNC(=O)c1cc(Cl)c(N)cc1OCC#N [Example 13, 4-Amino-5-chloro-2-cyanomethoxy-N-[2-(diethylamino)ethyl]benzamide] |
| > 1000 | CCN(CC)CCNC(=O)c1cc(Cl)c(N)cc1OC(C)C#N (stereo not drawn) [Example 14] |
| > 1000 | CCN(CC)CCNC(=O)c1cc(Cl)c(N)cc1OCC(=O)OC [Example 15, 4-Amino-5-chloro-N-[2-(diethylamino)ethyl]-2-(2-methoxy-2-oxoethoxy)benzamide] |
| > 1000 | CCN(CC)CCNC(=O)c1cc(Cl)c(N)cc1OCC1COC(C)(C)O1 (stereo not drawn) [Example 18, 4-Amino-5-chloro-N-[2-(diethylamino)ethyl]-2-(2,2-dimethyl-1,3-dioxalan-4-yl)methoxybenzamide] |
| > 1000 | CCN(CC)CCNC(=O)c1cc(Cl)c(N)cc1OCc1cc(C)no1 [Example 19, 4-Amino-5-chloro-N-[2-(diethylamino)ethyl]-2-(3-methylisoxazol-5-yl)methoxybenzamide] |
| > 1000 | C=CCC(Oc1cc(N)c(Cl)cc1C(=O)NCCN(CC)CC)C(C)=O (stereo not drawn) [Example 24, 4-Amino-5-chloro-N-[2-(diethylamino)ethyl]-2-(5-hexen-2-on-3-yl)-oxybenzamide hydrochloride] |
| > 1000 | CCC(Oc1cc(N)c(Cl)cc1C(=O)NCCN(CC)CC)C(C)=O (stereo not drawn) [Example 25, 4-Amino-5-chloro-N-[2-(diethylamino)ethyl]-2-(pentan-2-on-3-yl)-oxybenzamide] |
| > 1000 | CCC(=O)COc1cc(N)c(Cl)cc1C(=O)NCCN(CC)CC [Example 26, 4-Amino-2-(2-butanon-1-yl)oxy-5-chloro-N-[2-(diethylamino)-ethyl]benzamide] |
| > 1000 | CCCC(=O)COc1cc(N)c(Cl)cc1C(=O)NCCN(CC)CC [Example 27, 4-Amino-5-chloro-N-[2-(diethylamino)ethyl]-2-(pentan-2-on-1-yl)oxybenzamide] |
| > 1000 | CCN(CC)CCNC(=O)c1cc(Cl)c(N)cc1OCC(=O)C(C)C [Example 29] |
| > 1000 | CCN(CC)CCNC(=O)c1cc(Cl)c(N)cc1OCC(=O)Cc1ccccc1 [Example 30] |
| > 1000 | CCN(CC)CCNC(=O)c1cc(Cl)c(N)cc1OC(C)(C)C(C)=O [Example 31, 4-Amino-5-chloro-N-2-(diethylamino)ethyl]-2-[(3-methyl)butan-2-on-3-yl]oxybenzamide monohydrate] |
| > 1000 | CCN(CC)CCNC(=O)c1cc(Cl)c(N)cc1OCC(O)Cc1ccccc1 (stereo not drawn) [Example 33, 4-Amino-5-chloro-N-[2-(diethylamino)ethyl]-2-[2-(2-hydroxy-3-phenylpropyl)]oxybenzamide] |
| > 1000 | CCN(CC)CCNC(=O)c1cc(Cl)c(N)cc1OCC1OCCO1 [Example 43] |
| > 1000 | CCN(CC)CCNC(=O)c1cc(Cl)c(N)cc1OCc1ccccn1 [Example 45, 4-Amino-5-chloro-N-[2-(diethylamino)ethyl]-2-(2-pyridinomethyl)-oxybenzamide] |
| > 1000 | CCN(CC)CCNC(=O)c1cc(Cl)c(N)cc1OCCOCCOC [Example 46, 4-Amino-5-chloro-N-[2-(diethylamino)ethyl]-2-(2-methoxyethoxyethyl)oxybenzamide] |
| > 1000 | CCN(CC)CCNC(=O)c1cc(Cl)c(N)cc1OCC1=NCCN1 [Example 51, 4-Amino-5-chloro-N-[2-(diethylamino)ethyl]-2-(1H-4,5-dihydroimidazol-2-yl)methoxybenzamide] |
| > 1000 | CCN(CC)CCNC(=O)c1cc(Cl)c(N)cc1OCCC1(C)OCCO1 [Example 54] |

| SMILES | IC50 [nM] |
| --- | --- |
| CCC(=O)C(C)Oc1cc(N)c(Cl)cc1C(=O)NCCN(CC)CC (stereo not drawn) [Example 28, 4-Amino-5-chloro-2-(pentan-3-on-2-yl)oxy-N-(2-diethylaminoethyl)benzamide hydrochloride] | > 1000 |
